Earlier results on one molecule are cited in patent US12427145B2, “Controlled release pharmaceutical composition of Selexipag or it's active metabolite” (Innovate Therapeutics LLC, priority 2019, dated 2025).

For data set [1] the following is noted: oral immediate release dosage form, out of 575 subjects.
The conditions of data set [2]: fasting condition.
The conditions of data set [3]: study AC-065A303, 52 subjects out of 218 subjects.

Read-outs that look alike come from different tables or passages of the source.

`CC(C)N(CCCCOCC(=O)NS(C)(=O)=O)c1cnc(-c2ccccc2)c(-c2ccccc2)n1` [Selexipag]: in data set [1], the “Arthralgia, subjects” value is reported as 11%; the “Diarrhea, subjects” value is given as 42%; the “Flushing, subjects” value was 12%; the “Headache, subjects” value is 65%. Moreover, in data set [1], the “Jaw pain, subjects” value is given as 26%; the “Myalgia, subjects” value is listed as 16%; the “Nausea, subjects” value is given as 33%; the “Pain in Extremity, subjects” value is 17%. In data set [1], the “Rash, subjects” value is reported as 11% and the “Vomiting, subjects” value is 18%. For the same molecule, the “subjects reporting Headache” value in data set [2] (200 μg Selexipag, 1 out of 6 subjects) is recorded as 17%. In addition, in data set [2] (600 μg Selexipag, 2 out of 6 subjects), the “subjects reporting Headache” value is recorded as 33%. In addition, the “subjects reporting Headache” value in data set [2] (800 μg Selexipag, 5 out of 6 subjects) is listed as 83%. Further, the “subjects with at least 1 adverse event leading to discontinuation of study drug” value in data set [3] is 24%.
